Experimental data from publication PMC9851200, “Multiparameter phenotypic screening for endogenous TFEB and TFE3 translocation identifies novel chemical series modulating lysosome function” (Autophagy, 2022).
Read-outs that look alike come from different tables or passages of the source.

Key:
CLEAR genes = assay: RT-qPCR of CLEAR gene expression; assay type: cell-based; details: SH-SY5Y, 1 µM compound, 48 h
Method: We assessed autophagic flux by quantifying LC3-II levels using western blotting in compound-treated cells in the presence or absence of the lysosomal inhibitor bafilomycin A1. […] Given the lack of correlation between the ability of the compounds to upregulate CLEAR genes, and changes in LC3-II levels, the action of the compounds was therefore independent of autophagic flux. SH-SY5Y cells were treated with compounds in 12-well or 24-well plates (Corning Costar, […]). Cell pellets were harvested and RNA was extracted using the RNeasy Mini Kit (QIAGEN, 74,104) according to manufacturer's instructions. cDNA was generated from 500 ng RNA using Superscript III Reverse Transcriptase (Thermofisher Scientific, 18,080,085). Expression of the CLEAR genes CTSD, HEXA, LAMP1, CLCN7, ATP6V0A1, SQSTM1, UVRAG and GABARAP were assessed using Fast SYBR Green Master Mix standard protocol (Thermofisher Scientific, 4,309,155), on a StepOnePlusTM Real-Time PCR System (Applied biosystems, Waltham, MA, USA). Primer sequences are shown in Table S7A and were designed in Primer3 or by OriGene Technologies and validated in house for efficiency and specificity.

SRPK1, SRPK2 = assay: KiNativ in-cell kinase binding, SRPK1, SRPK2; details: 2 µM
Text: (§1) As KINOMEscan is an in vitro assay, and as different cell types have variable kinase expression profiles we sought to determine the kinase binding profile in our SH-SY5Y TFEB-relocalization cell model. […] Bound kinases were pulled down and analyzed by mass spectrometry to determine the in situ kinase binding profile for each compound.

TLK1 = target: T1, TLK1 (Homo sapiens, UniProt Q9UKI8); assay: KiNativ in-cell kinase binding, TLK1; details: SH-SY5Y cells, Labeling Site Lys2
T1 construct: endogenous in cells; host or cells: SH-SY5Y
Text: as §1

[1] = target: cellular kinases of SH-SY5Y cells (Homo sapiens, UniProt O00329); assay: biochemical; assay type: binding; details: 2µM; SH-SY5Y cells; Labeling Site ATP; VNWLAHNVSKDNRQ; read-out: KiNativ in-cell binding, % Inhibition, PIK3CD
Text: as §1

[2] = target: T2, cellular kinases of SH-SY5Y cells (Homo sapiens, UniProt O14733); assay: biochemical; assay type: binding; details: 2µM; SH-SY5Y cells; labeling site Lys2; peptide DVKPSNILLDER
T2 construct: endogenous in cells; host or cells: SH-SY5Y
Text: as §1

[3] = target: T3, cellular kinases of SH-SY5Y cells (Homo sapiens, UniProt O14936); assay: biochemical; assay type: binding; details: 2µM; SH-SY5Y cells; Labeling Site Lys1; ETGQQFAVKIVDVAK; read-out: KiNativ in-cell binding, % Inhibition, CASK
T3 construct: endogenous in cells; host or cells: SH-SY5Y
Text: as §1

[4] = target: cellular kinases of SH-SY5Y cells (Homo sapiens, UniProt Q14012); assay: biochemical; assay type: binding; details: 2µM; SH-SY5Y cells; labeling site Lys1; peptide LVAIKCIAK
Text: as §1

[5] = target: T4, cellular kinases of SH-SY5Y cells (Homo sapiens, UniProt Q15208); assay: biochemical; assay type: binding; details: 2µM, SH-SY5Y cells, read-out: KiNativ in-cell binding, % Inhibition, STK38/NDR1
T4 construct: endogenous in cells; host or cells: SH-SY5Y
Text: as §1

[6] = target: cellular kinases of SH-SY5Y cells (Homo sapiens, UniProt Q96L34); assay: biochemical; assay type: binding; details: 2µM, SH-SY5Y cells, read-out: KiNativ in-cell binding, % Inhibition, MARK4
Text: as §1

PRKD3 = target: T5, PRKD3 (Homo sapiens, UniProt O94806); assay: KiNativ in-cell kinase binding, PRKD3; design: endogenous in cells; host or cells: SH-SY5Y; details: for inhibition at 2 µM: SH-SY5Y cells
T5 sequence (O94806 1-890): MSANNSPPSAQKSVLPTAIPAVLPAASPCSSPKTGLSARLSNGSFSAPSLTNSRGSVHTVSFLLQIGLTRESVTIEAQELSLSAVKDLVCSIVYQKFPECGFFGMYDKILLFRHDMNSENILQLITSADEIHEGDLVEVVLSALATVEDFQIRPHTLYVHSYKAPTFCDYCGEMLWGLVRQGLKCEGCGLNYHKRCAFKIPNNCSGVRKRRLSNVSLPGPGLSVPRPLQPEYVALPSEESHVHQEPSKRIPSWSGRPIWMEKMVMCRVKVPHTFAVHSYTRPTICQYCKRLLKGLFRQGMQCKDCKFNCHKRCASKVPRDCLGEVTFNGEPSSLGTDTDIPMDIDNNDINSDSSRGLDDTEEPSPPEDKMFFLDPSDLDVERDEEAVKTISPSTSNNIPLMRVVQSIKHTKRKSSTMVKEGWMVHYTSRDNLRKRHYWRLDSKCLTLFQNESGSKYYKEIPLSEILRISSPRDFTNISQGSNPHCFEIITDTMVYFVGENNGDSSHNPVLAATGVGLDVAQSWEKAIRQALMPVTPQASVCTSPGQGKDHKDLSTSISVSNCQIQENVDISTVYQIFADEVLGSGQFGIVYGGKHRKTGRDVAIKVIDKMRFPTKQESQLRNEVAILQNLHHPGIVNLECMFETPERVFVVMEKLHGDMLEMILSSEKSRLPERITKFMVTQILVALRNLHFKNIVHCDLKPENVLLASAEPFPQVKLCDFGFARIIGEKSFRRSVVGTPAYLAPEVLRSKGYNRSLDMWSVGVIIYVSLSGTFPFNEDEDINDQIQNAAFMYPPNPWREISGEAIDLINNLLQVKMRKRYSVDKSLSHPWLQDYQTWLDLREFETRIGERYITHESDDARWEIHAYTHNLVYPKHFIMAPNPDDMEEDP
Text: as §1

MAPK10/JNK3 = MAPK10/JNK3 (Homo sapiens, UniProt P53779); assay type: binding
MAPK10/JNK3, sequence (P53779 whole entry): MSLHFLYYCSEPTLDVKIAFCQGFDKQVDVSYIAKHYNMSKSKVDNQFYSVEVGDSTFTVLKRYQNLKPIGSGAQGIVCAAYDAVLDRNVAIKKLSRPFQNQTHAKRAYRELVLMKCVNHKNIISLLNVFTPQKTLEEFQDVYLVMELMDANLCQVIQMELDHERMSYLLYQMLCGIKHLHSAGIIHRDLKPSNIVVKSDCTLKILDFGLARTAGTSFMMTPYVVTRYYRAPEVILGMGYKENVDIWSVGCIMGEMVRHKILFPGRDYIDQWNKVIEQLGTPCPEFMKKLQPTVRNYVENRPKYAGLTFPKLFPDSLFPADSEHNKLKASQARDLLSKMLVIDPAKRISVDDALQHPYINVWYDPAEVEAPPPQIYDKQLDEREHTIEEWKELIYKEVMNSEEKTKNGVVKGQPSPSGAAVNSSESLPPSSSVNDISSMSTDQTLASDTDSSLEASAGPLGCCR

cellular kinases of SH-SY5Y cells (Homo sapiens, UniProt Q96L34), sequence (Q96L34 whole entry): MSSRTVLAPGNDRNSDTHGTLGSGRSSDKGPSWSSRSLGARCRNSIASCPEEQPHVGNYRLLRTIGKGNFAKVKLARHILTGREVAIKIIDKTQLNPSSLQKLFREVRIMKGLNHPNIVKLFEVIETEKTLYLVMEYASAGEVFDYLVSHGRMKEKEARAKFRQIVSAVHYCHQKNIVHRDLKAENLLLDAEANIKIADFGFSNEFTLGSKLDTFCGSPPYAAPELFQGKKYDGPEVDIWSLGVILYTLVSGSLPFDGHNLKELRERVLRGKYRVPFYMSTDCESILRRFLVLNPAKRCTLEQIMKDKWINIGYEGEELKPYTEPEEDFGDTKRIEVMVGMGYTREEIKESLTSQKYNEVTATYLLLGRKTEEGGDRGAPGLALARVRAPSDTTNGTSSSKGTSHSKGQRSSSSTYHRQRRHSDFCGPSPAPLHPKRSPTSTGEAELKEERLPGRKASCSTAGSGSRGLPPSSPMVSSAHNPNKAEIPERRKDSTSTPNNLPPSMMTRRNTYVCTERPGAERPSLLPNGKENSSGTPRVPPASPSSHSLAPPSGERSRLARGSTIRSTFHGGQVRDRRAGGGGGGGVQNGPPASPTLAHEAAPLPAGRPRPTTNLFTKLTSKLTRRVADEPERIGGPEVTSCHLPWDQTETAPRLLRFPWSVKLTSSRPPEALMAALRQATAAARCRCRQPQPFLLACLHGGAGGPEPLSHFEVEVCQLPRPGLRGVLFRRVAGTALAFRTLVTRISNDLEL
T4 sequence (Q15208 whole entry): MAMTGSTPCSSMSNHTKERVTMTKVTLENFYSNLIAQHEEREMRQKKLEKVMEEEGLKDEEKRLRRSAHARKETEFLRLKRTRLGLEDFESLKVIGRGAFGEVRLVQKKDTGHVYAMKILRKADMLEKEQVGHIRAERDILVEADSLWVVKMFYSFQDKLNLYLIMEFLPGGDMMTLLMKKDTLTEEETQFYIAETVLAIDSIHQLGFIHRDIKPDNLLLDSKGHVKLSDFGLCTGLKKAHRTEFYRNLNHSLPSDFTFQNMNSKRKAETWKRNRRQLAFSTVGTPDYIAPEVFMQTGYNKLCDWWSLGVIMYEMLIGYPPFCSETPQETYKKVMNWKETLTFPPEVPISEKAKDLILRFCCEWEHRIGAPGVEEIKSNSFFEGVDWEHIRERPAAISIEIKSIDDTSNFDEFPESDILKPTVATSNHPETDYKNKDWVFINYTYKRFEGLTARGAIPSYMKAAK
T2 sequence (O14733 whole entry): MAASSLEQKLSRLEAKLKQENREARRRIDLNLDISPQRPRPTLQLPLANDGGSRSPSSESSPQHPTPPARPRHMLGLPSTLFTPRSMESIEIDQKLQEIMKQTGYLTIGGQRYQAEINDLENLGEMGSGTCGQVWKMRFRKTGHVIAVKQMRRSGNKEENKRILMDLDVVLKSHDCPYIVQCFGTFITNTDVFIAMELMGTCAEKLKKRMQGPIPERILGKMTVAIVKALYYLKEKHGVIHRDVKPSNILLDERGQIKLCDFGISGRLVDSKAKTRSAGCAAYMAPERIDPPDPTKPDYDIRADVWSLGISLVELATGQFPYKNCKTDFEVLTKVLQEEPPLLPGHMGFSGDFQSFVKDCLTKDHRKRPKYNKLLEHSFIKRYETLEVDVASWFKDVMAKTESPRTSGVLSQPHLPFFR
cellular kinases of SH-SY5Y cells (Homo sapiens, UniProt Q14012), sequence (Q14012 whole entry): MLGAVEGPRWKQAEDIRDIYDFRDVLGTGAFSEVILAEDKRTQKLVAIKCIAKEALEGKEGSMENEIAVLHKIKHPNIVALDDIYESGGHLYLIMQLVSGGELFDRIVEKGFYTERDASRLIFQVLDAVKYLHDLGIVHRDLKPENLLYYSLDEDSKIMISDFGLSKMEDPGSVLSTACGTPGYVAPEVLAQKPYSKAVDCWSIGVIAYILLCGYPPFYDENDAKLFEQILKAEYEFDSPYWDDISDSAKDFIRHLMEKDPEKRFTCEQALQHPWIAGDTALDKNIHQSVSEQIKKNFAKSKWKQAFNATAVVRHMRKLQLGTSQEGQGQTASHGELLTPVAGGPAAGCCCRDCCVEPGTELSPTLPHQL
cellular kinases of SH-SY5Y cells (Homo sapiens, UniProt O00329), sequence (O00329 whole entry): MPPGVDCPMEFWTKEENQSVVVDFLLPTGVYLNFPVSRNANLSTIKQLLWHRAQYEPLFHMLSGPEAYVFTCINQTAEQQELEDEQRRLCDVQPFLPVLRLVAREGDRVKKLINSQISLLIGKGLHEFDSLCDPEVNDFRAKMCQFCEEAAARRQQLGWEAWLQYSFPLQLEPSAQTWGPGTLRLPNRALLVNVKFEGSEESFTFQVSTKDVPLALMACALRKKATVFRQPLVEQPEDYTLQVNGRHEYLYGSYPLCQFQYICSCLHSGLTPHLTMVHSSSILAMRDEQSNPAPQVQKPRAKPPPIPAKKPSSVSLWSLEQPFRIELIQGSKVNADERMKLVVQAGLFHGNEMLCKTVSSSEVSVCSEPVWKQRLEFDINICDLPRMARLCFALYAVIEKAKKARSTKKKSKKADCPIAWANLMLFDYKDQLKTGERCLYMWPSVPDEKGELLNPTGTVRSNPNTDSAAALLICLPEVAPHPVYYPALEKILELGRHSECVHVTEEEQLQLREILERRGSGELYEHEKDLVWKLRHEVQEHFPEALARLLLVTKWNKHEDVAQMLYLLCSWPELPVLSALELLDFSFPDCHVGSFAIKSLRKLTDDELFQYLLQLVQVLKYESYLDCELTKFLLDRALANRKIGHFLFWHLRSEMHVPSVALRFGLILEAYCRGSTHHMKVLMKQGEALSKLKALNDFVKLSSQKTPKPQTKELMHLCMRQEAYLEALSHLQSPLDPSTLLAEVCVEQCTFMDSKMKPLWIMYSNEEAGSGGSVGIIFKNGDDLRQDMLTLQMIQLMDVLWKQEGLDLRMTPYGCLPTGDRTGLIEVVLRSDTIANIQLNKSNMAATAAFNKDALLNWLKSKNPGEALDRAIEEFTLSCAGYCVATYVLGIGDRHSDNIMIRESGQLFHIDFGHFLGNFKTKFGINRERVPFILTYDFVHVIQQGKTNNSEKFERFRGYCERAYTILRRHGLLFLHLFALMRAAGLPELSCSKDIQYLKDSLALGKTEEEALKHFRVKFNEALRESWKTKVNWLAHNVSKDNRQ
T1 sequence (Q9UKI8 whole entry): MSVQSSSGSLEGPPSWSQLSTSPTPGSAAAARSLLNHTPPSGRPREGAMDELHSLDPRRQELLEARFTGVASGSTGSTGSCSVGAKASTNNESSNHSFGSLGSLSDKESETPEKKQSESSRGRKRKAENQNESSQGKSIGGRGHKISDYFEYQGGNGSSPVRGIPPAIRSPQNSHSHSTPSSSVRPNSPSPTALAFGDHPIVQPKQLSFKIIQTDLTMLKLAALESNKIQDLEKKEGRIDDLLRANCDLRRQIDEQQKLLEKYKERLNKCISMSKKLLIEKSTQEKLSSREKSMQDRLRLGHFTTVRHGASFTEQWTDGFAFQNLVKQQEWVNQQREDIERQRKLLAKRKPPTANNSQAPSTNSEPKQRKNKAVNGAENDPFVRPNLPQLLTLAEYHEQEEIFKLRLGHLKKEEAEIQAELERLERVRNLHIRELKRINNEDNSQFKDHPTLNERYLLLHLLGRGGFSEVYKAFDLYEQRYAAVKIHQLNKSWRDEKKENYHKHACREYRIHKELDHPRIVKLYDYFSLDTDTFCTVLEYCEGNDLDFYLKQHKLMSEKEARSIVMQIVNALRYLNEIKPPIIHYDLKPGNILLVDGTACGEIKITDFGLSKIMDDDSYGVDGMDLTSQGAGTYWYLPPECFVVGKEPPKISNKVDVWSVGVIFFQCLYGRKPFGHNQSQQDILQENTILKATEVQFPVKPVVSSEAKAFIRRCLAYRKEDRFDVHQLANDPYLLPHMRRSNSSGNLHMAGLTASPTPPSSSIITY

SMILES | CLEAR gene expression (in words) (CLEAR genes) | KiNativ in-cell binding, % Inhibition, SRPK1, SRPK2 (SRPK1, SRPK2) [%] | inhibition at 2 µM (TLK1) [%] | inhibition at 2 µM [1] [%] | KiNativ in-cell binding, MAP2K7 [2] | inhibition at 2 µM [3] [%] | KiNativ in-cell binding, CaMK1 [4] | inhibition at 2 µM ([5]; Labeling Site Lys1, DTGHVYAMKILR) [%] | inhibition at 2 µM ([5]; Labeling Site Lys2, DIKPDNLLLDSK) [%] | inhibition at 2 µM ([6]; Labeling Site Lys1, EVAIKIIDKTQLNPSSLQK) [%] | inhibition at 2 µM ([6]; Labeling Site Lys2, DLKAENLLLDAEANIK) [%] | inhibition at 2 µM (PRKD3; Labeling Site Lys1, DVAIKVIDK) [%] | inhibition at 2 µM (PRKD3; Labeling Site Lys2, NIVHCDLKPENVLLASAEPFPQVK) [%] | KiNativ binding of PRKD3 (in words) (PRKD3; SH-SY5Y cells treated 2 h) | KINOMEscan MAPK10/JNK3 (MAPK10/JNK3)
Cc1cccc(-c2nc(Nc3ccc4ncsc4c3)c3ccccc3n2)n1 [NK140] | upregulation of a number of CLEAR genes | 80.8 | 48.9 | -29.2 | -84.9 | 43 | -56.2 | -36.9 | 20.9 | 7.2 | 11.5 | 71.5 | 78.5 | bound | 
Cc1cccc(-c2nc(N(C)c3ccc4ncsc4c3)c3ccccc3n2)n1 [NK-161] |  |  |  |  |  |  |  |  |  |  |  |  |  |  | 16
